melting point: 121 to 122 °C
Structure (SMILES): C=CC(=O)N1C(=C)C(c2ccccc2F)CC1=O (stereo not shown) [DHP, 5-methylene-1-(prop-2-enoyl)-4-(2-fluorophenyl)-dihydropyrrol-2-one]
